Laboratory results as given in article PMC10392906 (Advances and Applications in Bioinformatics and Chemistry : …, 2023).

Target: T1, pancreatic porcine α-amylase (Sus scrofa, UniProt P00690)
T1 sequence (P00690 16-511): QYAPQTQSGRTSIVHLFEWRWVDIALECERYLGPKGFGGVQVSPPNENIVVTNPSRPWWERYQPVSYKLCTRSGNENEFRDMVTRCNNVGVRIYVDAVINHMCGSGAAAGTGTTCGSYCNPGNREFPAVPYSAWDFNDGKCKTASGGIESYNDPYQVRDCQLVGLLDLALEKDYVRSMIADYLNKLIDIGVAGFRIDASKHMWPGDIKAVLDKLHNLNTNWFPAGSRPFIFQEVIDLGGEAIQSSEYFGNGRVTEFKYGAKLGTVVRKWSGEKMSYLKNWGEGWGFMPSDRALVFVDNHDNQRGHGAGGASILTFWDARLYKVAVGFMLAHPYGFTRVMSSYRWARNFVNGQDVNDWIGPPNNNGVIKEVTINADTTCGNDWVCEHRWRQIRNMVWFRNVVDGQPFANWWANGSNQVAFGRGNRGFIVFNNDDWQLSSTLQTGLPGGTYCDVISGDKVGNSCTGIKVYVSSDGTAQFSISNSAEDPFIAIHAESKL
Experiment: α-Amylase inhibitory assay
Type: biochemical
Settings: for inhibition at 10 µg/mL: read-out: % of Inhibition of α-amylase (Mean ± S.D.), 10 µg/mL

% of Inhibition of α-amylase (Mean ± S.D.) (10 µg/mL) [%]	inhibition at 10 µg/mL [%]	α-amylase inhibitory effect better than acarbose (versus acarbose)	Compound
85.32±0.36			4-(-2-(3-(4-(Dimethylamino)phenyl)-4,5-Dihydro-1H-Pyrazol-5-yl)vinyl)-2-Methoxyphenol [Compound 8]
	85.17 ± 0.55		COc1cc(C=Cc2cc(-c3ccccc3)nc(O)n2)ccc1O [Compound 11, 4-(4-Hydroxy-3-Methoxystyryl)-6-Phenylpyrimidin-2-ol]
	87.15 ± 0.46	up to 2 fold	COc1cc(C=CC(=O)CC(c2ccc(N(C)C)cc2)n2ccnc2)ccc1O (stereo not shown) [Compound 16, 5-(4-(Dimethylamino)phenyl)-1-(4-Hydroxy-3-Methoxyphenyl)-5-(1H-Imidazol-1-yl)pent-1-En-3-One]
